{
  "source": "patent US6624140B1",
  "about": "“Synthetic peptides with antimicrobial and endotoxin neutralizing properties for management of the sepsis syndrome” (Academisch Ziekenhuis Bij de Universiteit van Amsterdam …, priority 1997, dated 2003)",
  "key": {"[1]": {"experiment": "Endotoxin Inhibition ELISA (EIE), competitive inhibition of Lipid A binding", "design": "species or system Escherichia coli", "details": "biotinylated BP2; 1 pg/ml E. coli 0111:B4 LPS", "procedure": "FIG. 6. Competitive inhibition of binding of synthetic peptide BP2 to immobilized lipid A by endotoxin. Biotinylated BP2 peptide in the indicated concentration range was pre-incubated with E. coli 0111:B4 LPS at 1 pg/ml for 20 min at 23° C. and the residual endotoxin binding activity was determined with the use of a lipid A binding ELISA microplate assay. Individual values are the means of triplicate experiments corrected for non-specific binding.\nFIGS. 7A and 7B. Detection of endotoxin in solution with a Lipid A binding assay, the endotoxin inhibition ELISA (EIE) microplate assay. Dose-response of residual LPS binding activity of synthetic peptide BP2 at 8 ng/ml after pre-incubation with E. coli 0111:B4 LPS in the ranges from 0.1 to 1000 pg/ml (Panel A) or from 0.1 to 100 pg/ml (Panel B).\nCapture of the TAG labeled J5 LPS by immobilized synthetic peptide was quantitated by electrochemiluminescence detection subsequent to washing steps with phosphate buffer containing 0.1% (w/v) Triton X100 to remove excess unbound LPS. […] This confirms the high capacity of immobilized peptides of the invention for endotoxin in solution. […] LPS with high affinity and are universal lipid A binding ligands. […]"}, "[2]": {"experiment": "Murine model of lethal endotoxemia", "assay_type": "in vivo, mice", "details": "at 7 days; 5 mg/kg i.p. 20 min before Actinomycin D 800 μg/Kg plus LPS 5 μg/Kg; three experiments combined", "procedure": "FIG. 13. Efficacy of synthetic peptide BP2 on survival in a murine model of lethal endotoxemia. Outbred femal Swiss-Webster mice of 7 to 8 weeks, weighing 28 to 30 g were treated with BP2 peptide by intraperitoneal (i.p) administration of a dose of 5 mg/Kg in pyrogen-free saline. Twenty minutes later the mice were challenged by i.p administration of the sensitizing agent Actinomycin D at 800 μg/Kg plus lethal concentrations of purified E. coli 0111:B4 LPS at 5 or 11 μg/Kg. Control groups only received Actinomycin D plus LPS. Survival was recorded at 24 h intervals during a 7 day period of observation. The indicated values are the combined results of three independent experiments.\nThe efficacy of the peptides of the invention in the protection of experimental animals against the toxic effects of LPS or live pathogenic bacteria was investigated with the use of murine models of lethal endotoxemia and peritonitis Laboratory mice, which are normally tolerant to high doses of endotoxin and require a lethal dose (LD100) of approximately 1 mg, may be sensitized with Actinomycin D to 10,000×lower amounts of endotoxin for lethality. […] The survival of the treated animals was recorded at 24 h intervals during a seven day period of observation and compared with the control groups. […]"}, "TNF-α production": {"system": "TNF-α production", "experiment": "TNF-α in whole blood ex vivo, peptide added before LPS challenge", "assay_type": "cell-based, human", "procedure": "FIG. 12. Effect of pre-challenge addition of synthetic peptides on TNF-a levels induced by E. coli 0111:B4 LPS in whole blood ex vivo. The synthetic peptides BP2, BP2.1 or BP2.2 were added to whole blood containing heparin at 2 I.U/ml at the concentrations indicated and incubated for 10 min at 37° C. TNF-α concentrations were measured after incubation for 4 h at 37° C. subsequent to addition of E. coli 0111:B4 LPS at 1 ng/ml. The values represent the means of triplicate experiments. Controls only contained added LPS.\nTo determine whether addition of synthetic peptide to whole blood ex vivo prior to endotoxin challenge was effective in endotoxin neutralization assayed in terms of cytokine production, a synthetic peptide of the invention BP2, and the analogues BP2.1 or BP2.2 were added at concentrations of 2.5 to 20 μg/ml to whole blood and incubated for 10 min at 37° C. prior to the addition of 1 ng/ml E. coli 0111:B4 LPS. TNF-α concentrations were determined as previously described. […] The structurally related LPS-binding synthetic peptide analogues BP2.1 and BP2.2 were ineffective in endotoxin neutralization under these conditions."}},
  "note": "No end group written: not given here.",
  "data": [
    {"substance": "GKWKLFKKAFKKFLKILAC-OH [BP2, Gly-Lys-Trp-Lys-Leu-Phe-Lys-Lys-Ala-Phe-Lys-Lys-Phe-Leu-Lys-Ile-Leu-Ala-Cys]", "values": [
      {"measurement": "inhibition of binding of peptide to immobilized Lipid A", "setting": "[1]", "result": 65, "unit": "%"},
      {"measurement": "survival", "setting": "[2]", "result": 75, "unit": "%"},
      {"measurement": "endotoxin neutralization (TNF-α production)", "setting": "TNF-α production; 2.5 to 20 μg/ml added 10 min before 1 ng/ml LPS", "result": "dose-dependent inhibition"},
      {"measurement": "inhibition of cytokine (TNF-α) production", "setting": "TNF-α production; peptide 20 μg/ml added 10 min before 1 ng/ml LPS", "result": 57, "unit": "%"}
    ]}
  ]
}
